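All cell lines were grown in 96-well plates and treated with compound for 48 hours. Definition used: TGI = concentration required for complete inhibition of growth.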
Legend:
Assay in all cases: NCI-60 cell line screen, 48 h
786-0 renal = system: 786-0 renal
A498 renal = system: A498 renal
A549 NSCLC = system: A549 NSCLC
ACHN renal = system: ACHN renal
BT-549 breast = system: BT-549 breast
CAKI-1 renal = system: CAKI-1 renal
CCRF-CEM leukemia = system: CCRF-CEM leukemia
COLO 205 colon = system: COLO 205 colon
DU-145 prostate = system: DU-145 prostate
EKVX NSCLC = system: EKVX NSCLC
HCC-2998 colon = system: HCC-2998 colon
HCT-116 colon = system: HCT-116 colon
HCT-15 colon = system: HCT-15 colon
HL-60(TB) leukemia = system: HL-60(TB) leukemia
HOP-62 NSCLC = system: HOP-62 NSCLC
HOP-92 NSCLC = system: HOP-92 NSCLC
HS 578T breast = system: HS 578T breast
HT29 colon = system: HT29 colon
IGROV1 ovarian = system: IGROV1 ovarian
K-562 leukemia = system: K-562 leukemia
KM12 colon = system: KM12 colon
LOX IMVI melanoma = system: LOX IMVI melanoma
M14 melanoma = system: M14 melanoma
MALME-3M melanoma = system: MALME-3M melanoma
MCF7 breast = system: MCF7 breast
MDA-MB-231 breast = system: MDA-MB-231 breast
MDA-MB-435 = system: MDA-MB-435
MDA-N = system: MDA-N
MOLT-4 leukemia = system: MOLT-4 leukemia
NCI-H226 lung = system: NCI-H226 lung
NCI-H23 lung = system: NCI-H23 lung
NCI-H460 lung = system: NCI-H460 lung
NCI-H522 lung = system: NCI-H522 lung
NCI/ADR-RES ovarian = system: NCI/ADR-RES ovarian
OVCAR-3 ovarian = system: OVCAR-3 ovarian
OVCAR-4 ovarian = system: OVCAR-4 ovarian
OVCAR-5 ovarian = system: OVCAR-5 ovarian
OVCAR-8 ovarian = system: OVCAR-8 ovarian
PC-3 prostate = system: PC-3 prostate
RPMI-8226 leukemia = system: RPMI-8226 leukemia
RXF 393 renal = system: RXF 393 renal
SF-268 CNS = system: SF-268 CNS
SF-295 CNS = system: SF-295 CNS
SF-539 CNS = system: SF-539 CNS
SK-MEL-2 melanoma = system: SK-MEL-2 melanoma
SK-MEL-28 melanoma = system: SK-MEL-28 melanoma
SK-MEL-5 melanoma = system: SK-MEL-5 melanoma
SN12C renal = system: SN12C renal
SNB-19 CNS = system: SNB-19 CNS
SR leukemia = system: SR leukemia
SW-620 colon = system: SW-620 colon
TK-10 renal = system: TK-10 renal
U251 CNS = system: U251 CNS
UACC-257 melanoma = system: UACC-257 melanoma
UACC-62 melanoma = system: UACC-62 melanoma
UO-31 renal = system: UO-31 renal
SK-OV-3 ovarian = system: SK-OV-3 ovarian
T-47D breast = system: T-47D breast

Measured: TGI

CCOC(=O)c1ncn(CCc2ccc(Cl)cc2)c1C
not listed: SK-OV-3 ovarian | T-47D breast
> 100 µM: all other assays above

CCCCN=NNc1cn(C2OC(CO)C(O)C2O)c(=O)[nH]c1=O (stereo not drawn)
not listed: BT-549 breast | HOP-92 NSCLC | K-562 leukemia | RPMI-8226 leukemia | U251 CNS | UO-31 renal
> 100 µM: all other assays above

From PubChem BioAssay (NCI)
